Patent publication US10556922B2, “Crystalline and amorphous forms of 17-alpha-hydroxyprogesterone caproate” (AMAG Pharmaceuticals, Inc., priority 2015, dated 2020)
Converted amounts (≈) assume the structure as drawn. Read-outs that look alike come from different tables or passages of the source.

What was measured:
[1] = Solubility of crystalline HPC in organic solvents; format: physicochemical; settings: organic solvent or mixture, 25° C.
[2] = Solution-mediated transformation studies (relative physical stability of Form A and Form B versus temperature); format: physicochemical
Procedure: Solution-mediated transformation studies were conducted to establish the relative physical stability of Form A and Form B versus temperature. Excess solid was suspended in a slurry using various solvents, including mixtures of benzyl benzoate and castor oil. After equilibration times of 1 day to two weeks, the excess solid was filtered and analyzed by powder x-ray diffraction to determine the crystalline form.

Structure (SMILES) | solubility ([1]; ethanol, read-out: solubility in ethanol) | solubility ([1]; ethyl acetate, read-out: solubility in ethyl acetate) | solubility ([1]; isopropanol, read-out: solubility in isopropanol) | solubility ([1]; methanol, read-out: solubility in methanol) | relative physical stability ([2]; above 35° C.) | relative physical stability ([2]; below 27° C.) | relative physical stability ([2]; below room temperature, additional studies) | physical stability on storage ([2]; storage temperatures of room temperature (20-25° C.) or below (refrigeration))
CCCCCC(=O)O[C@]1(C(C)=O)CC[C@H]2[C@@H]3CCC4=CC(=O)CC[C@]4(C)[C@H]3CC[C@@]21C [Form A, 17-α-hydroxyprogesterone caproate] | ~118 mg/mL (≈ 275 mM) | ~419 mg/mL (≈ 978 mM) | ~91 mg/mL (≈ 212 mM) | ~142 mg/mL (≈ 331 mM) | more stable (less soluble) |  |  | 
CCCCCC(=O)O[C@]1(C(C)=O)CC[C@H]2[C@@H]3CCC4=CC(=O)CC[C@]4(C)[C@H]3CC[C@@]21C [Form B, 17-α-hydroxyprogesterone caproate] |  |  |  |  |  | more stable (less soluble) | likely to be more stable | physically stable polymorph
